Results taken from the supplement of paper PMC12076712.

What was measured:
Experiment in all cases: pIC50, kinobeads binding competition
Conditions in all cases: cell material: Jurkat lysate
UniProt Q9BVS4 = target: UniProt Q9BVS4
UniProt O95747 = target: UniProt O95747
HIPK3 = HIPK3 (UniProt Q9H422)
UniProt O94768 = target: T1, UniProt O94768
T1 sequence (whole entry): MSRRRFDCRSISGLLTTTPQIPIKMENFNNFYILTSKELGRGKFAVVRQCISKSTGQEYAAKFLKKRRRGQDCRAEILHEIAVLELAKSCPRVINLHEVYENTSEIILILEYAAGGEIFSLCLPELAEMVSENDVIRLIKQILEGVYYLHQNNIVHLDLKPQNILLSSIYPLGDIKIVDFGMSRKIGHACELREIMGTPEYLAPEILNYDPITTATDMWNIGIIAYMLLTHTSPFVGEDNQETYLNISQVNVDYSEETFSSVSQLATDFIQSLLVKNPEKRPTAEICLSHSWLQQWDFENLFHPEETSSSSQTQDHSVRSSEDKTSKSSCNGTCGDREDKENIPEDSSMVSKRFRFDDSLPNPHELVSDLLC

PDIK1L = PDIK1L (UniProt Q8N165)
Chain of PDIK1L (Q8N165 whole entry): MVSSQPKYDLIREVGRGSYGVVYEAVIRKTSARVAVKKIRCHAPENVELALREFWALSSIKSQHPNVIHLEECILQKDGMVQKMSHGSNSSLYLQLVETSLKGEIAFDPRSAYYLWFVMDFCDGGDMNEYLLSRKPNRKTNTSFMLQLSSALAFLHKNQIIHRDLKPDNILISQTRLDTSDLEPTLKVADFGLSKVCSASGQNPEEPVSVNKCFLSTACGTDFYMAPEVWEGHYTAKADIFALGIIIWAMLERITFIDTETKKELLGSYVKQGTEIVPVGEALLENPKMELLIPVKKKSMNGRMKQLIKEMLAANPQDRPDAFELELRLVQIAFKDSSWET

ITK = target: T2, ITK (UniProt Q08881)
T2 sequence (whole entry): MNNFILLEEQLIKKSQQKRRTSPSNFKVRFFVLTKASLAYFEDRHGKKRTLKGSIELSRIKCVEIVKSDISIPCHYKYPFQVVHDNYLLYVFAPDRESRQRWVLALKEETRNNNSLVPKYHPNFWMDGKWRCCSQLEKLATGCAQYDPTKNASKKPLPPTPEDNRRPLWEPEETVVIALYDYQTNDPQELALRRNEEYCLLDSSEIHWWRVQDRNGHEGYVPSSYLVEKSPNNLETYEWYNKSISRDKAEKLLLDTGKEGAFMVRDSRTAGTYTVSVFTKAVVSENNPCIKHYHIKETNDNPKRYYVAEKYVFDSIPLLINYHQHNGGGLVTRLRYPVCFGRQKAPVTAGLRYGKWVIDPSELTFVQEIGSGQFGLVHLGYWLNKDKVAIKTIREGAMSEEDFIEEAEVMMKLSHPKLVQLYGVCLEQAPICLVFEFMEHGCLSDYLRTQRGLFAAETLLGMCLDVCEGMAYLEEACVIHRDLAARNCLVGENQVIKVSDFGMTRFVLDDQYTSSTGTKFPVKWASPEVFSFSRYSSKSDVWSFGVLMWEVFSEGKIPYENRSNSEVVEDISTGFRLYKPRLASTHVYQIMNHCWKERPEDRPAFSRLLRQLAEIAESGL

UniProt P25098 = target: T3, UniProt P25098
T3 sequence (whole entry): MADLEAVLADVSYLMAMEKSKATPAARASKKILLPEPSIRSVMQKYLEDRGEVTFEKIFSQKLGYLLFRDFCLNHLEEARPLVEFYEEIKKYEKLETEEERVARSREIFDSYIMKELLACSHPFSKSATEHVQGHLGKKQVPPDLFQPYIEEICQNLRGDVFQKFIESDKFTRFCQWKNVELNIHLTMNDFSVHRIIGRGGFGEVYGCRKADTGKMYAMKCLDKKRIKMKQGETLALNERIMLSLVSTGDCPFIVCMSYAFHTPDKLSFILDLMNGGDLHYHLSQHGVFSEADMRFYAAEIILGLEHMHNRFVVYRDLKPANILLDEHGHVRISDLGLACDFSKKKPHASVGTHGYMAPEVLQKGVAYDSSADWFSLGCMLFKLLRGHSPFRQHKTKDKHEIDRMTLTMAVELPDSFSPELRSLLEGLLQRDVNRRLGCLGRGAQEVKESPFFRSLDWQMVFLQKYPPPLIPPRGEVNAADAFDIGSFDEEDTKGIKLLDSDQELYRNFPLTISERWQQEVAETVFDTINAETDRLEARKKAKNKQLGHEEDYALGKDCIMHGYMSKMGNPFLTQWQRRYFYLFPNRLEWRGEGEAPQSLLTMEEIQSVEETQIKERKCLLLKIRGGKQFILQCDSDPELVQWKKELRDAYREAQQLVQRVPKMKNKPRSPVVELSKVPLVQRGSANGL

CIT = CIT (UniProt O14578)
UniProt Q9Y2K2 = target: UniProt Q9Y2K2
Chain of UniProt Q9Y2K2 (Q9Y2K2 whole entry, looked up): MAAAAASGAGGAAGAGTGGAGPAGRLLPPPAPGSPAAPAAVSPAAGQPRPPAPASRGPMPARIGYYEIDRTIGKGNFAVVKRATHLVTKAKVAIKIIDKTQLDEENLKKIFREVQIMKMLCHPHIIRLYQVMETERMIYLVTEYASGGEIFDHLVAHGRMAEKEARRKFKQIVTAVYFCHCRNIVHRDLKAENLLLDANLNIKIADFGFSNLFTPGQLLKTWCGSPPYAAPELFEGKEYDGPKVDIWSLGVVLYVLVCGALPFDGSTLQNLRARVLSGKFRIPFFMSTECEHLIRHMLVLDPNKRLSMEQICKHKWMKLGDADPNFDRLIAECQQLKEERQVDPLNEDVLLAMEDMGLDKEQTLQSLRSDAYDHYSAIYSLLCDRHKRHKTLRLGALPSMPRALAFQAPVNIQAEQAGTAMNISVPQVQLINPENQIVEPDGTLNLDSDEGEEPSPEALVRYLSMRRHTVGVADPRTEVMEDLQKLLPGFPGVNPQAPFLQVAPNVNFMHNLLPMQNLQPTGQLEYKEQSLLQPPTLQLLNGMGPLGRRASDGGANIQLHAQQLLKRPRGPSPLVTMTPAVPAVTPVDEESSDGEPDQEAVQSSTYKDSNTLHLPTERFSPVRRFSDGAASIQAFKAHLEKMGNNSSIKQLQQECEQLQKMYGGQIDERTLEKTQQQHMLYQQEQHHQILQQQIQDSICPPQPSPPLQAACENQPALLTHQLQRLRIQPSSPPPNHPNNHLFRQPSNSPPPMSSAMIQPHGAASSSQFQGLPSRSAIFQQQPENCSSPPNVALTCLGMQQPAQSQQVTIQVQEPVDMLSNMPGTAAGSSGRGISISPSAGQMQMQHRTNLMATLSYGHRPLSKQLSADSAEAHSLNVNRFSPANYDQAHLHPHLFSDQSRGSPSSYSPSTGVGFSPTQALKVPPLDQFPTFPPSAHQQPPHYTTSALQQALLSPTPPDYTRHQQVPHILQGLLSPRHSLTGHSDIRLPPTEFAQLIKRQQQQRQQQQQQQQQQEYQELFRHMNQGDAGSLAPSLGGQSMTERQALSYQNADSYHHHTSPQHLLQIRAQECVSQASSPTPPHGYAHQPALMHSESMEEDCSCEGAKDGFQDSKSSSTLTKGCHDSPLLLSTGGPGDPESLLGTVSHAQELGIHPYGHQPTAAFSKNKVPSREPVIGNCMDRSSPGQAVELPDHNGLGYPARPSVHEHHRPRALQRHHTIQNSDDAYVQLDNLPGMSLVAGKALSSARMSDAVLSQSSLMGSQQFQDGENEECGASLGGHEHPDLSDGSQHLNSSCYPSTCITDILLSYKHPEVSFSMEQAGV

UniProt O96017 = target: UniProt O96017
Chain of UniProt O96017 (O96017 whole entry): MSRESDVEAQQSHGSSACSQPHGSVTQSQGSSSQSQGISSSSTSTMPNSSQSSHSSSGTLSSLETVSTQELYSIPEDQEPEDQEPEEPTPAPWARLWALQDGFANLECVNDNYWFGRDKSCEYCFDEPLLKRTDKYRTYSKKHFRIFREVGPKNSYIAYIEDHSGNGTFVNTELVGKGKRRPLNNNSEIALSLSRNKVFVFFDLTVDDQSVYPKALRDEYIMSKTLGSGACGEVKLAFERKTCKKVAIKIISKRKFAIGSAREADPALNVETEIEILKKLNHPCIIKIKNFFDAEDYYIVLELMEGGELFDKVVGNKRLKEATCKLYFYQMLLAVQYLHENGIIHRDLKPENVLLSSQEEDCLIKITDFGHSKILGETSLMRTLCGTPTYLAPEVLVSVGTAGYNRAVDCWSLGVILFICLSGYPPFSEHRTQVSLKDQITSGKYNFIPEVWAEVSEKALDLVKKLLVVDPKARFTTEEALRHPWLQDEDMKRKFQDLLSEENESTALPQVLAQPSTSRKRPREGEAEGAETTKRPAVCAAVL

NEK9 = target: T4, NEK9 (UniProt Q8TD19)
T4 sequence (whole entry): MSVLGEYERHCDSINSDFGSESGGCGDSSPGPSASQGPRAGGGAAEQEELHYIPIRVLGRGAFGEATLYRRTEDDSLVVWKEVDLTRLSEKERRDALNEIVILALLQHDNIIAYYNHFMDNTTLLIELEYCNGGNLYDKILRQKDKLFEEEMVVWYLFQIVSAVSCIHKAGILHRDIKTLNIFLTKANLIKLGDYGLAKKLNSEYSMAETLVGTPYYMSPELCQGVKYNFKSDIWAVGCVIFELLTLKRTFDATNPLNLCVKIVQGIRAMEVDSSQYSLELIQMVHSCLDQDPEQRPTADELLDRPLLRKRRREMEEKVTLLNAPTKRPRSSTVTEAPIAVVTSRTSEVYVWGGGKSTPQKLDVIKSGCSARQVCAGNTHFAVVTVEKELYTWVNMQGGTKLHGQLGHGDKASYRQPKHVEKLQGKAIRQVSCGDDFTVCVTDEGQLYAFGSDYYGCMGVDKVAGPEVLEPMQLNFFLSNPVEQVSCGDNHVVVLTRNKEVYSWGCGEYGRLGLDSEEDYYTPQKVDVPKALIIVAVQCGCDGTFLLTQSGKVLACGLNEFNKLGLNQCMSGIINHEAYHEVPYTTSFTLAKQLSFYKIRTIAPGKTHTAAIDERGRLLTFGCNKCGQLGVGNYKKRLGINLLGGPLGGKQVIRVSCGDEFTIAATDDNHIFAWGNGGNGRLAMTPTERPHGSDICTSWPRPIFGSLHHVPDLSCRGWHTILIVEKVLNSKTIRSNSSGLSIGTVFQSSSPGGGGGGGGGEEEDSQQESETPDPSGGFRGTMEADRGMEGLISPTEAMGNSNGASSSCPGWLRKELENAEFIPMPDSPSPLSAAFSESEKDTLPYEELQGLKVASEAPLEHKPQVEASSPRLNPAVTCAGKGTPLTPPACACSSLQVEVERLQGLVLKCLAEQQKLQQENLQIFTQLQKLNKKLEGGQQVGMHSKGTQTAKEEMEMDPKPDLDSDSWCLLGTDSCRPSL

Measured: pIC50

Chain of HIPK3 (Q9H422 whole entry, looked up): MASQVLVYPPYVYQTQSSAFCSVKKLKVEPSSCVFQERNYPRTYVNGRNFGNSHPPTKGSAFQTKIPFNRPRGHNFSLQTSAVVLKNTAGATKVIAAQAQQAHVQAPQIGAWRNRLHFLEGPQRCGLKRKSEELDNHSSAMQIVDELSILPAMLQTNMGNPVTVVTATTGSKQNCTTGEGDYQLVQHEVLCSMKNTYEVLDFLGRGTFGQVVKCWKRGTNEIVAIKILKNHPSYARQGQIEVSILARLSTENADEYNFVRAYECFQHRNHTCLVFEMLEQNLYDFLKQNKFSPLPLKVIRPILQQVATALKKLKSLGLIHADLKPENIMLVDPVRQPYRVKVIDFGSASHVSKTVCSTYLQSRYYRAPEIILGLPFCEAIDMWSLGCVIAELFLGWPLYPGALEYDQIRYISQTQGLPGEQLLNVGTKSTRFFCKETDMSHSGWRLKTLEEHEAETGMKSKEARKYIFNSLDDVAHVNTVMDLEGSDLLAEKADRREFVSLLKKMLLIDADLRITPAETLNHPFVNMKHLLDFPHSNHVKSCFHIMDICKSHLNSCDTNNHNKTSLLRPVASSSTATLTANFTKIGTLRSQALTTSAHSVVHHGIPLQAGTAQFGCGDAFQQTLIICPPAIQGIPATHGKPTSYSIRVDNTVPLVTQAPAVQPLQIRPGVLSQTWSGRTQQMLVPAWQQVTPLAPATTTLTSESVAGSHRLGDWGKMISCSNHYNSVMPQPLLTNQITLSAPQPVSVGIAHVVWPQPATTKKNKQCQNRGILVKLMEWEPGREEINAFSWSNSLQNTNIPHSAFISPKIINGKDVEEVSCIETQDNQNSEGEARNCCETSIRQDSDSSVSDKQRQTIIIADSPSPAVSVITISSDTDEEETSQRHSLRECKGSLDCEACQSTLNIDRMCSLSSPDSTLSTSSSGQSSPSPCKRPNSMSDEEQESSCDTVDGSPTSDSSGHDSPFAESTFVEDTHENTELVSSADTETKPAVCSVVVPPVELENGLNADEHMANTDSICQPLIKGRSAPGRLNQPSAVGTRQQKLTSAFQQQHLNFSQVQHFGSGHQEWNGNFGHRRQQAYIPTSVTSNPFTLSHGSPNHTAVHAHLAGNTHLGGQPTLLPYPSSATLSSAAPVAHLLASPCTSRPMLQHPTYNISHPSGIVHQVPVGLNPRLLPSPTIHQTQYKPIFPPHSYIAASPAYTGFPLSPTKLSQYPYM
Chain of UniProt O95747 (O95747 whole entry, looked up): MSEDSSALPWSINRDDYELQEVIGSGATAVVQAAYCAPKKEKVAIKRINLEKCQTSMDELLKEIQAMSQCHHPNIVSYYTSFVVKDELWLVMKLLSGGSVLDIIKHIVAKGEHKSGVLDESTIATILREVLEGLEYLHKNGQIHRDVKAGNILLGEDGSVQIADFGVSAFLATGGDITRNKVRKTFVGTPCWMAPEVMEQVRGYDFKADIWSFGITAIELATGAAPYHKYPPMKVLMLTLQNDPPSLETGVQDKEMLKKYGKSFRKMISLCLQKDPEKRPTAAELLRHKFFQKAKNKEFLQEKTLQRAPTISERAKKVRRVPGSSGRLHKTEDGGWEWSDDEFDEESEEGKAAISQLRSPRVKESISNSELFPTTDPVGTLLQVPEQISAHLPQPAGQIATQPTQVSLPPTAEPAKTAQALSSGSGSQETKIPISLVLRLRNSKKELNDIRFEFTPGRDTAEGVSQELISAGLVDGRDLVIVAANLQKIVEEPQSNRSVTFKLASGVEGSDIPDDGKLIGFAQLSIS
Chain of UniProt Q9BVS4 (Q9BVS4 whole entry, looked up): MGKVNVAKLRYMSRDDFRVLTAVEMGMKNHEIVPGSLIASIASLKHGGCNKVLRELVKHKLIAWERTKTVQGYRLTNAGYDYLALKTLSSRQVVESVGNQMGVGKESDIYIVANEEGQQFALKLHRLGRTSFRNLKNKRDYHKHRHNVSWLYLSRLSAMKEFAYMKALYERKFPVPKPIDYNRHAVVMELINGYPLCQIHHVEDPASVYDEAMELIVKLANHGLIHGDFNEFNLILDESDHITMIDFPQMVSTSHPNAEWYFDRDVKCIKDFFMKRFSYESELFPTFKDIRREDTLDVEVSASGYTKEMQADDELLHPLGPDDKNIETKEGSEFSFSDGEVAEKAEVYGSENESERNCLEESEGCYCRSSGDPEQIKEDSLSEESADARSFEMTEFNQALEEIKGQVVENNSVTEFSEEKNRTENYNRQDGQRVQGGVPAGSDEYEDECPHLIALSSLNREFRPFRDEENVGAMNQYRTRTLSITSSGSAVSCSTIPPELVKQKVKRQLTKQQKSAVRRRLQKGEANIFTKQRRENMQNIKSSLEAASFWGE

CCc1cnn2c(NCc3ccc[n+]([O-])c3)cc(N3CCCC[C@H]3CCO)nc12 [dinaciclib]
< 4.52: all assays above
